# Key:
# [1] = tested on: lung PDX models; experiment: Response of lung PDX models with highest and lowest WFS1 gene expression; type: in vivo; settings: 10 highest and 10 lowest WFS1 expressing lung PDX models
# Excerpt: Finally, an in vivo study was run to evaluate the relationship between WFS1 expression in patient derived xenografts (PDX). To do this, the 10 lung PDX models with the highest WFS1 gene expression and the 10 lung PDX models with the lowest WFS1 gene expression were selected from the Oncotest compendium.
# [2] = tested on: Hek293 cells over-expressing WFS1; experiment: Calcium flux in Hek293 cells over-expressing WFS1 vs empty vector; type: cell-based; settings: induction of calcium flux
# Excerpt: To determine the effect of WFS1 over-expression on compound mediated effects on calcium flux and cell viability, Hek293 cells were transduced with either an empty retroviral vector or a retroviral vector expressing full length WFS1 cDNA. Hek293 cells transduced with the WFS1 encoding retrovirus expressed greater than 100 times the amount of WFS1 protein than empty vector Hek293 cells (FIG. 3).
# [3] = tested on: ER stress marker proteins XBP1(s) and ATF4; experiment: ER stress marker immunoblot in parental HepG2 vs WFS1 KO cells; type: cell-based; settings: 6 hours, immunoblotting
# Excerpt: (§1) In contrast WFS1 depletion had no effect on thapsigargin induced changes in global gene expression (FIG. 7.)
# [4] = target: WFS1 (Homo sapiens (Human), UniProt O76024); experiment: Binding of radiolabeled Compound 136 to cellular membrane extracts
# Method: Cell pellets were re-suspended in 15 times packed cellular volume in 4° C. hypotonic lysis buffer (10 mM HEPES, pH 7.5 containing 1×Protease inhibitor, 0.5 mM EDTA and 2 mM DTT). Re-suspended cells were homogenized with 6-8 strokes in a dounce homogenizer kept on ice. Lysates were centrifuged at 500×G for 15 minutes at 4° C. without brake to decelerate rotor. Following centrifugation, remove the supernatant to a fresh tube and place on ice (Supernatant 1). Repeat the above steps on the lysed cell pellet using 0.5 the original volume of hypotonic lysis buffer and remove the 500× G supernatant (Supernatant 2) and combine with Supernatant 1. Transfer the combined supernatants to a 45-Ti ultracentrifuge tube and centrifuge at 100,000× G for 30 minutes. Following ultracentrifugation, carefully remove the supernatant and discard. Resuspend the 100,000× G pellet in cold resuspension buffer (10 mM HEPES, pH 7.5, 300 mM NaCl containing 1× Protease inhibitor, 1× EDTA and 2 mM DTT). […]
# The binding affinities of compounds were determined by measuring the competitive displacement of a tritiated Compound 136 probe from purified HEK293 membranes over-expressing WFS-1. […]
# The binding affinity of radiolabeled Compound 136 to cell membranes derived from cells expressing different levels of WFS1 as determined by immunoblotting is shown in FIG. 8. […]
# [5] = tested on: global gene expression in HepG2 cells; experiment: Global gene expression changes in HepG2 vs WFS1 depleted cells; type: cell-based; settings: HepG2, 6 hours of exposure
# Excerpt: as §1
# [6] = tested on: tumor xenografts derived from multiple cancer types; experiment: In vivo efficacy of Compound 136 in various tumor xenografts; set-up: species or system SCID or nude mice; key to tumor response (regression class): CR: complete regression (majority response on treatment is that tumors become undetectable); PR: partial regression (majority response on treatment is that tumors shrink by at least 330%)
# Method: Female immune deficient mice (Charles River, 4-6 wks age) were anesthetized with Ketamine-Xylazine (140 mg/kg-14 mg/kg ip) and shaved. Puralube eye ointment was applied to the eyes to prevent desiccation of the corneas. Betadine and 70% ethanol was applied to the shaved location to sterilize the skin at the location of the incision. The animals were placed in a biosafety cabinet for the duration of the surgery. Using scissors, an 8 to 10 mm incision was made in the lateral flank of the skin. A tumor fragment weighing between 50 and 150 mg was placed under the skin at the incision site using forceps, and staples were used to close the incision. The staples were removed 5 to 7 days after surgery. Starting approximately two weeks after implantation, animals were weighed, and tumors were measured using caliper twice weekly. Tumor volume was calculated using the formula: volume=length×width^2×0.52.
# Compound administration began when xenografts reached approximately 100-300 mm3 and continued until control xenografts reached […] of the animal's body weight. Test compounds were administered orally by gastric gavage. Percent tumor growth inhibition (TG) was calculated on the indicated treatment day. Percent TGI is defined as: [1−(del T/del C)]×100%, where del T is the final minus initial average volumes of the treated group, and del C is the final minus initial average volumes of the control group. […] The tested compounds were administered orally. Vehicle control consisted of either 0.5% methylcellulose/0.1% sodium lauryl sulfate or 20% captisol. Tumor volumes were determined by caliper measurement twice a week.
# Tumors were engrafted in either SCID or nude mice. Compound 136 was administered orally once a day (QD) at 100 mg/kg. Vehicle control consisted of 0.5 methylcellulose/0.10% sodium lauryl sulfate. Tumor volumes were determined by caliper measurement twice a week. TG tumor growth inhibition at end of treatment. CR: complete regression (majority response on treatment is that tumors become undetectable), PR: partial regression (majority response on treatment is that tumors shrink by at least […]).
# [7] = Bladder BXF 1036, 100 mg/kg QD oral, 21 days
# [8] = Kidney RXF 631, 100 mg/kg QD oral, 21 days
# [9] = Melanoma MEXF 1765, 100 mg/kg QD oral, 21 days
# [10] = Multiple myeloma NCI-H929, 100 mg/kg QD oral, 21 days
# [11] = Multiple myeloma OPM2, 100 mg/kg QD oral, 21 days
# [12] = Non-small cell lung LXFL 529, 100 mg/kg QD oral, 21 days
# [13] = Non-small cell lung LXFL 625, 100 mg/kg QD oral, 21 days
# [14] = Non-small cell lung LXFL 2207, 100 mg/kg QD oral, 21 days
# [15] = Non-small cell lung OD26749, 100 mg/kg QD oral, 21 days
# [16] = Non-small cell lung OD33966, 100 mg/kg QD oral, 21 days
# WFS1, sequence (O76024 whole entry): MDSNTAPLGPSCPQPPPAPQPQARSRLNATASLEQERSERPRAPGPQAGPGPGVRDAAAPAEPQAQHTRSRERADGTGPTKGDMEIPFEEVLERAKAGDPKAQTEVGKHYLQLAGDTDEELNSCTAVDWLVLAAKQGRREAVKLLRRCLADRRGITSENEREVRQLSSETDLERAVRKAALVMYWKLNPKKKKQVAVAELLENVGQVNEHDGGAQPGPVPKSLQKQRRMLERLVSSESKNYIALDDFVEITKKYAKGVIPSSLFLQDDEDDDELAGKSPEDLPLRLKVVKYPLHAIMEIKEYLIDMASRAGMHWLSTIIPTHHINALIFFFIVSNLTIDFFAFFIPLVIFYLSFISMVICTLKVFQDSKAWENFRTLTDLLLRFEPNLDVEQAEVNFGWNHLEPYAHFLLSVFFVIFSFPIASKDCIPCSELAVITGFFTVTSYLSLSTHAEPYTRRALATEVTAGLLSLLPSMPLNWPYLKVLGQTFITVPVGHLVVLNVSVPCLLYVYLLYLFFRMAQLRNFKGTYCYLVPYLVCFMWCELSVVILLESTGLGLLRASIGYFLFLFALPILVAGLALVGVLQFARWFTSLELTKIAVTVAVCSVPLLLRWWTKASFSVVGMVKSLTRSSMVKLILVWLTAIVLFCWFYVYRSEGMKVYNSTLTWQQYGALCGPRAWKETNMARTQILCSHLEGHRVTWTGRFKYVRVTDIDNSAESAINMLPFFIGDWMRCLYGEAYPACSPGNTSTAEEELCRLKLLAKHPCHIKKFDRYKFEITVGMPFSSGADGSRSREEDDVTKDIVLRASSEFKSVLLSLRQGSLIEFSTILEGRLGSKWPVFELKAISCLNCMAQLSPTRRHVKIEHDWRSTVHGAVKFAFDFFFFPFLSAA
structure (smiles),measurement,setting,value
"Cc1nc(NCc2cnn(Cc3ccc(C(F)(F)F)nc3)c2)nc2c1NC(=O)[C@H](C)N2C [Compound 136, (7S)-4,7,8-trimethyl-2-(((1-((6-(trifluoromethyl)pyridin-3-yl)methyl)-111-pyrazol-4-yl)methyl)amino)-7,8-dihydropteridin-6(5H)-one]",association between WFS1 gene expression and response in PDX models,[1],strong association
same,reduction in the EC50 on over-expression of WFS1,[2],approximately 10 fold
same,effect of WFS1 depletion on induction of XBP1(s) and ATF4,[3],prevents the induction
same,binding to cellular membrane extracts which over-express WFS1,[4]; radiolabeled (tritiated) Compound 136,specifically bind
same,Bmax vs level of WFS1 protein in cellular membrane,"[4]; radiolabeled Compound 136, cells expressing different levels of WFS1",correlates with the level of WFS1 protein
same,effect of WFS1 depletion on changes in global gene expression,[5],prevented Compound 136 from causing changes
same,% TGI,[6]; [7],> 100%
same,Body weight change at end of treatment,[6]; [7],+5.5%
same,tumor response (regression class),[6]; [7],PR
same,% TGI,"[6]; Breast DU4475, 100 mg/kg QD oral, 14 days",99%
same,% TGI,[6]; [8],89%
same,Body weight change at end of treatment,[6]; [8],+6.2%
same,% TGI,[6]; [9],> 100%
same,Body weight change at end of treatment,[6]; [9],+9.8%
same,tumor response (regression class),[6]; [9],CR
same,% TGI,[6]; [10],> 100%
same,Body weight change at end of treatment,[6]; [10],+1.8%
same,tumor response (regression class),[6]; [10],CR
same,% TGI,[6]; [11],> 100%
same,Body weight change at end of treatment,[6]; [11],−0.9%
same,tumor response (regression class),[6]; [11],CR
same,% TGI,[6]; [12],> 100%
same,Body weight change at end of treatment,[6]; [12],+5.5%
same,tumor response (regression class),[6]; [12],CR
same,% TGI,[6]; [13],> 100%
same,Body weight change at end of treatment,[6]; [13],+3.7%
same,tumor response (regression class),[6]; [13],CR
same,% TGI,[6]; [14],> 100%
same,Body weight change at end of treatment,[6]; [14],+1.5%
same,tumor response (regression class),[6]; [14],PR
same,% TGI,[6]; [15],> 100%
same,Body weight change at end of treatment,[6]; [15],−0.1%
same,tumor response (regression class),[6]; [15],CR
same,% TGI,[6]; [16],> 100%
same,Body weight change at end of treatment,[6]; [16],+4.5%
same,tumor response (regression class),[6]; [16],PR
same,growth of tumor xenografts,"[6]; orally once a day (QD) at 100 mg/kg, SCID or nude mice",inhibits growth of tumor xenografts derived from multiple cancer types

# Reference: patent US20230312587A1, “PTERIDINONE COMPOUNDS AND USES THEREOF” (Vertex Pharmaceutical Incorporated, priority 2018, published 2023)
